In PubChem BioAssay AID200 (DTP/NCI, 2004):
Values joined by “and” are separate entries in the source; they are usually repeats but may differ in a detail not shown here. Identical values can stand only once. Inconclusive results and toxic doses are left out. Where a SMILES comes first, the peptide text is derived from it. [ ]: non-standard residue; d: D form. The star is where a group is joined. Cbz = O=C(OCc1ccccc1)*; Nva = CCC[CH](N)C(=O)O

Tested on: B6C3F1 mice, B16 melanoma ip, median survival T/C
Assay: NCI In Vivo Anticancer Drug Screen. Data for tumor model B16 Melanoma (intraperitoneal) in B6C3F1 mice
Conditions: endpoint: median survival time, schedule: Q01DX009 (ip), higher = longer survival
In short: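 Transplantable tumor in mice; treated vs vehicle control groups; survival or tumor size measured; value = T/C ratio.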

[1] = dose: 1.5 mg/kg/injection, vehicle: saline with Tween-80
[2] = dose: 3.0 mg/kg/injection, vehicle: saline with Tween-80
[3] = dose: 12.0 mg/kg/injection, vehicle: saline with Tween-80
[4] = dose: 100.0 mg/kg/injection, vehicle: Klucel (hydroxypropylcellulose) (HPC)
[5] = dose: 200.0 mg/kg/injection, vehicle: Klucel (hydroxypropylcellulose) (HPC)
[6] = dose: 25.0 mg/kg/injection, vehicle: saline with Tween-80
[7] = dose: 50.0 mg/kg/injection, vehicle: saline with Tween-80
[8] = dose: 100.0 mg/kg/injection, vehicle: saline with Tween-80
[9] = dose: 200.0 mg/kg/injection, vehicle: saline with Tween-80
[10] = dose: 25.0 mg/kg/injection, vehicle: saline
[11] = dose: 50.0 mg/kg/injection, vehicle: saline
[12] = dose: 100.0 mg/kg/injection, vehicle: saline
[13] = dose: 200.0 mg/kg/injection, vehicle: saline
[14] = dose: 400.0 mg/kg/injection, vehicle: saline
[15] = dose: 12.5 mg/kg/injection, vehicle: saline with Tween-80
[16] = dose: 400.0 mg/kg/injection, vehicle: Klucel (hydroxypropylcellulose) (HPC)

With `CN(C)CCN1C(=O)c2cccc3cc([N+](=O)[O-])cc(c23)C1=O` the T/C (dose: 0.37 mg/kg/injection, vehicle: saline with Tween-80) was 105 % of control, the T/C (dose: 0.75 mg/kg/injection, vehicle: saline with Tween-80) was 107 % of control and the T/C [1] was 112 % of control. For the same compound, the T/C (dose: 1.56 mg/kg/injection, vehicle: saline with Tween-80) was 117 % of control, the T/C [2] was 102 % of control and the T/C [3] was 88 % of control.

With `Cc1cn(C2CC(F)C(CO)O2)c(=O)[nH]c1=O` (stereo unspecified) the T/C (dose: 125.0 mg/kg/injection, vehicle: suspension in saline) was 117 % of control and the T/C (dose: 250.0 mg/kg/injection, vehicle: suspension in saline) was 116 % of control.

With `CC(NC(=O)OCc1ccccc1)C(=O)NC(C(=O)O)C(C)O` (stereo unspecified) the T/C [4] was 98 % of control and the T/C [5] was 106 % of control.

`CCN(CC)CCn1[nH]c2c3ccc(=O)cc3sc3c(NCCN)ccc1c32` was tested, and the T/C (dose: 1.56 mg/kg/injection, vehicle: water) was 161 % of control, the T/C (dose: 1.7 mg/kg/injection, vehicle: water) was 189 % of control and the T/C (dose: 2.7 mg/kg/injection, vehicle: water) was 225 % of control. The T/C (dose: 4.5 mg/kg/injection, vehicle: water) was 270 % of control, the T/C (dose: 7.5 mg/kg/injection, vehicle: water) was 281 % of control and the T/C (dose: 12.5 mg/kg/injection, vehicle: water) was 161 % of control and 264 % of control.

`N#CN=[N+]([O-])c1ccc(C(=O)O)cc1` was tested, and the T/C (dose: 1.87 mg/kg/injection, vehicle: Klucel (hydroxypropylcellulose) (HPC)) was 99 % of control and 101 % of control, the T/C (dose: 3.75 mg/kg/injection, vehicle: Klucel (hydroxypropylcellulose) (HPC)) was 96 % of control and 105 % of control and the T/C (dose: 7.5 mg/kg/injection, vehicle: Klucel (hydroxypropylcellulose) (HPC)) was 95 % of control and 102 % of control. The T/C (dose: 15.0 mg/kg/injection, vehicle: Klucel (hydroxypropylcellulose) (HPC)) was 89 % of control and 91 % of control and the T/C (dose: 30.0 mg/kg/injection, vehicle: Klucel (hydroxypropylcellulose) (HPC)) was 90 % of control and 97 % of control.

`Cn1c(=O)c(-c2ccccc2)[n+]([O-])c2ccccc21` was tested, and the T/C [6] was 98 % of control, the T/C [7] was 122 % of control and the T/C [8] was 101 % of control. The T/C [9] was 94 % of control.

For `COCC12CCC(OC)C34C5CC6(O)C(OC)CC(OC(C)=O)(C5C6OC(=O)c5ccccc5)C(C(OC)C13)C4N(C)C2` (stereo unspecified), the T/C (dose: 15.0 micrograms/kg/injection, vehicle: Klucel (hydroxypropylcellulose) (HPC)) was 92 % of control, the T/C (dose: 30.0 micrograms/kg/injection, vehicle: Klucel (hydroxypropylcellulose) (HPC)) was 108 % of control and the T/C (dose: 60.0 micrograms/kg/injection, vehicle: Klucel (hydroxypropylcellulose) (HPC)) was 96 % of control. For the same compound, the T/C (dose: 120.0 micrograms/kg/injection, vehicle: Klucel (hydroxypropylcellulose) (HPC)) was 99 % of control.

With `CCCC(NC(=O)CN)C(=O)O` (stereo unspecified) the T/C [10] was 108 % of control, the T/C [11] was 100 % of control and the T/C [12] was 99 % of control. The T/C [13] was 94 % of control and the T/C [14] was 108 % of control.

In the case of `Cc1c2cc[n+](C)cc2c(C)c2c1[nH]c1ccc(O)cc12`, the T/C (dose: 0.12 mg/kg/injection, vehicle: water) is reported as 107 % of control, the T/C (dose: 0.13 mg/kg/injection, vehicle: water) is reported as 117 % of control and the T/C (dose: 1.25 mg/kg/injection, vehicle: saline) is reported as 123 % of control. The T/C (dose: 2.5 mg/kg/injection, vehicle: saline) was 116 % of control.

With `CCN(CC)CCCC(C)Nc1c2ccc(C)cc2nc2ccc(OC)cc12` (stereo unspecified) the T/C (dose: 12.5 mg/kg/injection, vehicle: saline) was 102 % of control and the T/C [10] was 111 % of control.

`CC(C)c1cc(C(=O)O)c(O)c(C(C)C)c1.CC(C)c1cc(C(=O)O)c(O)c(C(C)C)c1.[Cu]` was tested, and the T/C [1] was 92 % of control, the T/C [2] was 96 % of control and the T/C (dose: 6.0 mg/kg/injection, vehicle: saline with Tween-80) was 97 % of control. The T/C [3] was 106 % of control, the T/C [15] was 102 % of control and the T/C (dose: 24.0 mg/kg/injection, vehicle: saline with Tween-80) was 89 % of control.

`C=C(C)C(=NC(C)(C)C)Nc1ccccc1` was tested, and the T/C (dose: 6.25 mg/kg/injection, vehicle: saline with Tween-80) was 98 % of control, the T/C [15] was 122 % of control and the T/C [6] was 109 % of control. For the same compound, the T/C [7] was 91 % of control, the T/C [8] was 96 % of control and the T/C [9] was 114 % of control.

With `O=C(O)CNC(=O)CNC(=O)CNC(=O)CNC(=O)CNC(=O)OCc1ccccc1` the T/C [4] was 111 % of control, the T/C [5] was 96 % of control and the T/C [16] was 97 % of control.

With `CC1=CC(=Nc2ccc(N(CCCl)CCCl)cc2)C=C(C)C1=O` the T/C (dose: 6.25 mg/kg/injection, vehicle: Klucel (hydroxypropylcellulose) (HPC)) was 150 % of control, the T/C (dose: 12.5 mg/kg/injection, vehicle: Klucel (hydroxypropylcellulose) (HPC)) was 163 % of control and 176 % of control and the T/C (dose: 25.0 mg/kg/injection, vehicle: Klucel (hydroxypropylcellulose) (HPC)) was 186 % of control.

For `CCC1=C(C)c2cc3[n-]c(cc4nc(cc5[n-]c(cc1n2)c(C)c5CCC(=O)OC)C(CCC(=O)OC)=C4C)c(C)c3CC.[Ni+2]`, the T/C (dose: 2.4 mg/kg/injection, vehicle: saline with Tween-80) was 88 % of control, the T/C (dose: 4.7 mg/kg/injection, vehicle: saline with Tween-80) was 88 % of control and the T/C (dose: 9.4 mg/kg/injection, vehicle: saline with Tween-80) was 92 % of control.

With `C=C1CCOC2(C(O)C(C)(O)CO)NC(=O)C1(O)NC2=O` (stereo unspecified) the T/C [11] was 97 % of control, the T/C [12] was 95 % of control and the T/C [13] was 99 % of control.

For `O=C1C=CN(C2OC(CO)C(O)C2O)C(=O)C1` (stereo unspecified), the T/C [10] was 97 % of control, the T/C [11] was 108 % of control and the T/C [12] was 102 % of control. For the same compound, the T/C [13] was 105 % of control and the T/C [14] was 115 % of control.

In the case of `CCCC(NC(=O)OCc1ccccc1)C(=O)NC(CCSC)C(=O)O` (stereo unspecified) (Cbz-[Nva]-Met-OH; configuration not given here), the T/C [4] is reported as 100 % of control, the T/C [5] is reported as 104 % of control and the T/C [16] is reported as 96 % of control.

With `COc1cc(C2c3cc4c(cc3C(OC3CCCCO3)C3COC(=O)C23)OCO4)cc(OC)c1OC` (stereo unspecified) the T/C (dose: 1.56 mg/kg/injection, vehicle: Klucel (hydroxypropylcellulose) (HPC)) was 93 % of control and the T/C (dose: 3.12 mg/kg/injection, vehicle: Klucel (hydroxypropylcellulose) (HPC)) was 98 % of control.

`C=Cc1cc(OC)c2c(c1)c(=O)oc1c2cc(OC)c2c(O)ccc(C3OC(C)C(O)C(C)(O)C3O)c21` (stereo unspecified) was tested, and the T/C (dose: 2.5 mg/kg/injection, vehicle: DMSO) was 120 % of control, the T/C (dose: 5.0 mg/kg/injection, vehicle: DMSO) was 124 % of control and 103 % of control and the T/C (dose: 20.0 mg/kg/injection, vehicle: DMSO) was 158 % of control. For the same compound, the T/C (dose: 40.0 mg/kg/injection, vehicle: DMSO) was 169 % of control and 196 % of control and the T/C (dose: 80.0 mg/kg/injection, vehicle: DMSO) was 207 % of control.

For `COC(=O)[C@@]12OC[C@]34[C@H]([C@@H](O)[C@@H]1O)[C@@]1(C)CC(=O)C(O)=C(C)[C@@H]1C[C@H]3OC(=O)[C@H](OC(=O)CC(C)C)[C@@H]24`, the T/C (dose: 1.0 mg/kg/injection, vehicle: saline + alcohol) was 156 % of control and 157 % of control and the T/C (dose: 2.0 mg/kg/injection, vehicle: saline + alcohol) was 180 % of control.
